Results reported in US20230085307A1, “PYRIDAZINONE COMPOUND AND HERBICIDE” (NISSAN CHEMICAL CORPORATION, priority 2019, published 2023).

Columns and labels:
[1] = tested on: barnyard grass; experiment: Test Example 5: herbicidal effect by foliage application, plastic box (Table 20, symbol H); type: in vivo, barnyard grass (Echinochloa crus-galli)
How it was run: (§1)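 Foliar spray test: emulsion formulation diluted in water to a set application rate, sprayed onto 14-day-old plants raised in diluvial soil at 25° C to 30° C under glass. Both herbicidal effect and crop effect rated visually three weeks later.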

[2] = tested on: lambsquarters; experiment: Test Example 4: herbicidal effect by soil treatment (Table 19, symbol O); type: in vivo, lambsquarters (Chenopodium album); conditions: amount of applied herbicide 320 g/ha
How it was run: (§2)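 Herbicidal effect was rated 3 weeks after treatment, using the scoring criteria of an earlier test. The compound, formulated as an emulsion and diluted in water to a set herbicide amount, had been sprayed uniformly on soil over freshly sown seeds. Growth took place in a greenhouse at 25° C. to 30° C.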

[3] = tested on: rice flat sedge; experiment: Test Example 3: herbicidal effect by foliage application, Wagner pot (Table 18, symbol E); type: in vivo, rice flat sedge (Cyperus iria)
How it was run: (§3)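 Plants were sown in alluvial soil held under 0.1–0.5 cm standing water and grown 14 days in a greenhouse at 25–30 °C. An emulsifiable formulation, water-diluted to the set dose, was then sprayed onto the foliage, and effects were scored three weeks later using previously defined criteria.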

[4] = tested on: chickweed; experiment: Test Example 4: herbicidal effect by soil treatment (Table 19, symbol P); type: in vivo, common chickweed (Stellaria media); conditions: amount of applied herbicide 320 g/ha
How it was run: as §2

[5] = tested on: persian speedwell; experiment: Test Example 5: herbicidal effect by foliage application, plastic box (Table 20, symbol R); type: in vivo, Persian speedwell (Veronica persica)
How it was run: as §1

[6] = tested on: Chinese sprangletop; experiment: Test Example 3: herbicidal effect by foliage application, Wagner pot (Table 18, symbol D); type: in vivo, chinese sprangletop (Leptochloa chinensis)
How it was run: as §3

[7] = tested on: velvetleaf; experiment: Test Example 4: herbicidal effect by soil treatment (Table 19, symbol M); type: in vivo, velvetleaf (Abutilon theophrasti); conditions: amount of applied herbicide 320 g/ha
How it was run: as §2

[8] = tested on: wild oat; experiment: Test Example 5: herbicidal effect by foliage application, plastic box (Table 20, symbol I); type: in vivo, wild oat (Avena fatua)
How it was run: as §1

[9] = tested on: barnyard grass; experiment: Test Example 3: herbicidal effect by foliage application, Wagner pot (Table 18, symbol H); type: in vivo, barnyard grass (Echinochloa crus-galli)
How it was run: as §3

[10] = tested on: redroot pigweed; experiment: Test Example 4: herbicidal effect by soil treatment (Table 19, symbol N); type: in vivo, redroot pigweed (Amaranthus retroflexus); conditions: amount of applied herbicide 320 g/ha
How it was run: as §2

[11] = tested on: lambsquarters; experiment: Test Example 5: herbicidal effect by foliage application, plastic box (Table 20, symbol O); type: in vivo, lambsquarters (Chenopodium album)
How it was run: as §1

[12] = tested on: southern crabgrass; experiment: Test Example 4: herbicidal effect by soil treatment (Table 19, symbol F); type: in vivo, southern crabgrass (Digitaria ciliaris); conditions: amount of applied herbicide 320 g/ha
How it was run: as §2

[13] = tested on: Italian ryegrass; experiment: Test Example 5: herbicidal effect by foliage application, plastic box (Table 20, symbol K); type: in vivo, Italian ryegrass (Lolium multiflorum)
How it was run: as §1

[14] = tested on: persian speedwell; experiment: Test Example 4: herbicidal effect by soil treatment (Table 19, symbol R); type: in vivo, Persian speedwell (Veronica persica); conditions: amount of applied herbicide 320 g/ha
How it was run: as §2

[15] = tested on: blackgrass; experiment: Test Example 5: herbicidal effect by foliage application, plastic box (Table 20, symbol J); type: in vivo, blackgrass (Alopecurus myosuroides)
How it was run: as §1

[16] = tested on: velvetleaf; experiment: Test Example 5: herbicidal effect by foliage application, plastic box (Table 20, symbol M); type: in vivo, velvetleaf (Abutilon theophrasti)
How it was run: as §1

[17] = tested on: wild oat; experiment: Test Example 4: herbicidal effect by soil treatment (Table 19, symbol I); type: in vivo, wild oat (Avena fatua); conditions: amount of applied herbicide 320 g/ha
How it was run: as §2

[18] = tested on: barnyard grass; experiment: Test Example 4: herbicidal effect by soil treatment (Table 19, symbol H); type: in vivo, barnyard grass (Echinochloa crus-galli); conditions: amount of applied herbicide 320 g/ha
How it was run: as §2

[19] = tested on: southern crabgrass; experiment: Test Example 5: herbicidal effect by foliage application, plastic box (Table 20, symbol F); type: in vivo, southern crabgrass (Digitaria ciliaris)
How it was run: as §1

[20] = tested on: green foxtail; experiment: Test Example 5: herbicidal effect by foliage application, plastic box (Table 20, symbol G); type: in vivo, green foxtail (Setaria viridis)
How it was run: as §1

[21] = tested on: Italian ryegrass; experiment: Test Example 4: herbicidal effect by soil treatment (Table 19, symbol K); type: in vivo, Italian ryegrass (Lolium multiflorum); conditions: amount of applied herbicide 320 g/ha
How it was run: as §2

[22] = tested on: green foxtail; experiment: Test Example 4: herbicidal effect by soil treatment (Table 19, symbol G); type: in vivo, green foxtail (Setaria viridis); conditions: amount of applied herbicide 320 g/ha
How it was run: as §2

[23] = tested on: windgrass; experiment: Test Example 4: herbicidal effect by soil treatment (Table 19, symbol L); type: in vivo, windgrass (Apera spica-venti); conditions: amount of applied herbicide 320 g/ha
How it was run: as §2

[24] = tested on: redroot pigweed; experiment: Test Example 5: herbicidal effect by foliage application, plastic box (Table 20, symbol N); type: in vivo, redroot pigweed (Amaranthus retroflexus); conditions: amount of applied herbicide 320 g/ha; foliage application after 14-day growth; evaluated three weeks after application
How it was run: as §1

[25] = tested on: chickweed; experiment: Test Example 5: herbicidal effect by foliage application, plastic box (Table 20, symbol P); type: in vivo, common chickweed (Stellaria media); conditions: amount of applied herbicide 320 g/ha; foliage application after 14-day growth; evaluated three weeks after application
How it was run: as §1

[26] = tested on: blackgrass; experiment: Test Example 4: herbicidal effect by soil treatment (Table 19, symbol J); type: in vivo, blackgrass (Alopecurus myosuroides); conditions: amount of applied herbicide 320 g/ha
How it was run: as §2

[27] = tested on: windgrass; experiment: Test Example 5: herbicidal effect by foliage application, plastic box (Table 20, symbol L); type: in vivo, windgrass (Apera spica-venti)
How it was run: as §1

[28] = tested on: late watergrass; experiment: Test Example 1: herbicidal activity, application before weed generation under submerged conditions (Table 16, symbol A); type: in vivo, late watergrass (Echinochloa oryzicola)
Source text: (§4) [Test Example 1] Herbicidal Activity Test by Application before Weed Generation under Submerged Conditions After alluvial soil was placed into 1/10000 are of Wagner pot, water was poured and mixed to form a submerged condition having a water depth of 4 cm. Seeds of late watergrass, Japanese bulrush, and oval-leafed pondweed were sowed in a mixed manner in the aforementioned pot, and then 2.5 leaf stage rice plant seedlings were transplanted thereto. On the day of sowing seeds, the emulsion agent of the compound of the present invention prepared according to Formulation Example 2 was diluted with water so as to achieve a predetermined herbicide amount, and the diluted emulsion agent was applied to the surface of the water. The pot was placed in a greenhouse at 25° C. to 30° C. for growth of the plants. Three weeks after the herbicide application, the effect of the herbicide on each plant was evaluated according to the following criteria. Evaluation Criteria 5: Herbicidal rate of 90% or more (almost completely withered) 4: Herbicidal rate of 70% or more and less than 90% 3: Herbicidal rate of 40% or more and less than 70% 2: Herbicidal rate of 20% or more and less than 40% 1: Herbicidal rate of 5% or more and less than 20% 0: Herbicidal rate of 5% or less (almost no effect)

[29] = tested on: Japanese bulrush; experiment: Test Example 1: herbicidal activity, application before weed generation under submerged conditions (Table 16, symbol B); type: in vivo, Japanese bulrush (Schoenoplectus juncoides)
Source text: as §4

[30] = tested on: oval-leafed pondweed; experiment: Test Example 1: herbicidal activity, application before weed generation under submerged conditions (Table 16, symbol C); type: in vivo, oval-leafed pondweed (Monochoria vaginalis); conditions: amount of applied herbicide 370 g/ha
Source text: as §4

[31] = amount of applied herbicide 320 g/ha, foliage application after 14-day growth, evaluated three weeks after application
[32] = foliage application, 320 g/ha, three weeks after application
[33] = amount of applied herbicide 320 g/ha
[34] = amount of applied herbicide 370 g/ha

COc1cc(F)ccc1-c1sc2cc(Cl)c(Cl)cc2c1-c1c(O)c(C)nn(C)c1=O [5-051]
Herbicidal effect by foliage application, H: barnyard grass [1, 31]: 3 (Herbicidal rate of 40% or more and less than 70%) | O: lambsquarters, herbicidal effect grade [2]: 4 (Herbicidal rate of 70% or more and less than 90%) | herbicidal effect on rice flat sedge (E) ([3]; 320 g/ha): 3 (Herbicidal rate of 40% or more and less than 70%) | P: chickweed, herbicidal effect grade [4]: 1 (Herbicidal rate of 5% or more and less than 20%) | Herbicidal effect by foliage application, R: persian speedwell [5, 31]: 3 (Herbicidal rate of 40% or more and less than 70%) | herbicidal effect on Chinese sprangletop (D) ([6]; 320 g/ha): 3 (Herbicidal rate of 40% or more and less than 70%) | M: velvetleaf, herbicidal effect grade [7]: 0 (Herbicidal rate of 5% or less (almost no effect)) | Herbicidal effect by foliage application, I: wild oat [8, 31]: 0 (Herbicidal rate of 5% or less (almost no effect)) | herbicidal effect on barnyard grass (H) ([9]; 320 g/ha): 4 (Herbicidal rate of 70% or more and less than 90%) | N: redroot pigweed, herbicidal effect grade [10]: 1 (Herbicidal rate of 5% or more and less than 20%) | Herbicidal effect by foliage application, O: lambsquarters [11, 31]: 3 (Herbicidal rate of 40% or more and less than 70%) | F: southern crabgrass, herbicidal effect grade [12]: 0 (Herbicidal rate of 5% or less (almost no effect)) | Herbicidal effect by foliage application, K: Italian ryegrass [13, 31]: 0 (Herbicidal rate of 5% or less (almost no effect)) | R: persian speedwell, herbicidal effect grade [14]: 0 (Herbicidal rate of 5% or less (almost no effect)) | Herbicidal effect by foliage application, J: blackgrass [15, 31]: 5 (Herbicidal rate of 90% or more (almost completely withered)) | Herbicidal effect by foliage application, M: velvetleaf [16, 31]: 5 (Herbicidal rate of 90% or more (almost completely withered)) | I: wild oat, herbicidal effect grade [17]: 0 (Herbicidal rate of 5% or less (almost no effect)) | H: barnyard grass, herbicidal effect grade [18]: 0 (Herbicidal rate of 5% or less (almost no effect)) | Herbicidal effect by foliage application, F: southern crabgrass [19, 31]: 2 (Herbicidal rate of 20% or more and less than 40%) | Herbicidal effect by foliage application, G: green foxtail [20, 31]: 4 (Herbicidal rate of 70% or more and less than 90%) | K: Italian ryegrass, herbicidal effect grade [21]: 0 (Herbicidal rate of 5% or less (almost no effect)) | G: green foxtail, herbicidal effect grade [22]: 2 (Herbicidal rate of 20% or more and less than 40%) | L: windgrass, herbicidal effect grade [23]: 0 (Herbicidal rate of 5% or less (almost no effect)) | Herbicidal effect by foliage application, N: redroot pigweed [24]: 3 (Herbicidal rate of 40% or more and less than 70%) | Herbicidal effect by foliage application, P: chickweed [25]: 5 (Herbicidal rate of 90% or more (almost completely withered)) | J: blackgrass, herbicidal effect grade [26]: 0 (Herbicidal rate of 5% or less (almost no effect)) | Herbicidal effect by foliage application, L: windgrass [27, 31]: 4 (Herbicidal rate of 70% or more and less than 90%)

COc1cc2sc(-c3ccccc3OC)c(-c3c(O)c(C)nn(C)c3=O)c2cc1Cl [5-068]
herbicidal effect on barnyard grass (H) [1, 32]: 3 (Herbicidal rate of 40% or more and less than 70%) | herbicidal effect on rice flat sedge (E) ([3]; 320 g/ha): 1 (Herbicidal rate of 5% or more and less than 20%) | Herbicidal effect, A: late watergrass [28, 33]: 0 (Herbicidal rate of 5% or less (almost no effect)) | herbicidal effect on persian speedwell (R) [5, 32]: 2 (Herbicidal rate of 20% or more and less than 40%) | herbicidal effect on Chinese sprangletop (D) ([6]; 320 g/ha): 0 (Herbicidal rate of 5% or less (almost no effect)) | herbicidal effect on wild oat (I) [8, 32]: 0 (Herbicidal rate of 5% or less (almost no effect)) | herbicidal effect on barnyard grass (H) ([9]; 320 g/ha): 4 (Herbicidal rate of 70% or more and less than 90%) | herbicidal effect on lambsquarters (O) [11, 32]: 3 (Herbicidal rate of 40% or more and less than 70%) | herbicidal effect on Italian ryegrass (K) [13, 32]: 0 (Herbicidal rate of 5% or less (almost no effect)) | herbicidal effect on blackgrass (J) [15, 32]: 0 (Herbicidal rate of 5% or less (almost no effect)) | herbicidal effect on velvetleaf (M) [16, 32]: 1 (Herbicidal rate of 5% or more and less than 20%) | Herbicidal effect, B: Japanese bulrush [29, 33]: 5 (Herbicidal rate of 90% or more (almost completely withered)) | herbicidal effect on southern crabgrass (F) [19, 32]: 1 (Herbicidal rate of 5% or more and less than 20%) | herbicidal effect on green foxtail (G) [20, 32]: 3 (Herbicidal rate of 40% or more and less than 70%) | herbicidal effect on windgrass (L) [27, 32]: 0 (Herbicidal rate of 5% or less (almost no effect))

CCCC(=O)Oc1c(C)nn(C)c(=O)c1-c1c(-c2ccccc2OCC)sc2cc(OC)c(-c3ccccc3OCC)cc12 [5-080]
herbicidal effect on rice flat sedge (E) ([3]; 370 g/ha): 2 (Herbicidal rate of 20% or more and less than 40%) | Herbicidal effect, A: late watergrass [28, 34]: 0 (Herbicidal rate of 5% or less (almost no effect)) | herbicidal effect on Chinese sprangletop (D) ([6]; 370 g/ha): 3 (Herbicidal rate of 40% or more and less than 70%) | herbicidal effect on barnyard grass (H) ([9]; 370 g/ha): 3 (Herbicidal rate of 40% or more and less than 70%) | Herbicidal effect, B: Japanese bulrush [29, 34]: 3 (Herbicidal rate of 40% or more and less than 70%) | Herbicidal effect, C: oval-leafed pondweed [30]: 0 (Herbicidal rate of 5% or less (almost no effect))
